Calls of active or inactive are those of the source. The calls are words filed in the database; no cut-off is given here. A value given as a limit tells only on which side of the number the result lay.

By IC50 is commonly meant the concentration that inhibits the measured activity by half.

One assay concerns CCRF-CEM. The assay is described as follows: Cytotoxicity against human CEM cells assessed as growth inhibition after 72 hrs by MTT assay. The format is functional, cell-based. Background: Formazan colour is commonly taken as a measure of viable cells.
A further assay has as its system SMMC-7721. The assay is described as follows: Cytotoxicity against human SMMC7721 cells assessed as growth inhibition after 72 hrs by MTT assay. The assay is classed as functional, cell-based. Conditions: SMMC-7721, 72 h.
The next assay deals with HepG2. The assay is described as follows: Cytotoxicity against human HepG2 cells assessed as growth inhibition after 72 hrs by MTT assay. The assay is classed as functional, cell-based. Conditions: HepG2, 72 h.
Assay [1] deals with Bel-7402. The assay is described as follows: Cytotoxicity against human Bel7402 cells assessed as growth inhibition after 72 hrs by MTT assay. The assay is classed as functional, cell-based. The conditions noted are these: Bel-7402, 72 h.
Assay [2] relates to MCF7. The assay is described as follows: Cytotoxicity against human MCF7 cells assessed as growth inhibition after 72 hrs by MTT assay. The format is functional, cell-based. The conditions noted are these: MCF7, 72 h.
A further assay deals with SW1990. The assay is described as follows: Cytotoxicity against human SW1990 cells assessed as growth inhibition after 72 hrs by MTT assay. The format is functional, cell-based. The conditions noted are these: SW1990, 72 h.
For assay [3], the system named is MCF7. The assay is described as follows: Cell cycle arrest in human MCF7 cells assessed as accumulation at G2/M phase at 0.02 uM after 24 hrs by propidium iodide staining-based flow cytometric analysis. The format is functional.
Assay [4] concerns Bel-7402. The assay is described as follows: Ratio of combretastatin A-4 IC50 to compound IC50 for human Bel7402 cells. The assay is classed as functional.
Assay [5] deals with MCF7. The assay can be described thus: Ratio of combretastatin A-4 IC50 to compound IC50 for human MCF7 cells. The assay is classed as functional.
In another assay the test system is HCT-116. The assay is described as follows: Cytotoxicity against human HCT116 cells assessed as growth inhibition after 72 hrs by MTT assay. Conditions: HCT-116, 72 h. The format is functional, cell-based.
Assay [6] deals with MCF7. The assay is described as follows: Cell cycle arrest in human MCF7 cells assessed as accumulation at G2/M phase after 24 hrs by propidium iodide staining-based flow cytometric analysis. The format is functional. In general terms: A flow cytometer gives signals particle by particle.

In the case of `COc1ccc(-c2c(-c3cc(OC)c(OC)c(OC)c3)c(=O)c2=O)cc1OC`, in the assay on CCRF-CEM, the IC50 was determined as 210 nM.
For the molecule `COc1cc(-c2c(-c3ccc4cc[nH]c4c3)c(=O)c2=O)cc(OC)c1OC`, the 50% inhibitory concentration (IC50) in the assay on SMMC-7721 was determined as 2540 nM; in the assay with HepG2, 6 nM; with CCRF-CEM, 6.6 nM; in the assay on Bel-7402 [1], 3620 nM.
For the molecule `COc1ccc(-c2c(-c3cc(OC)c(OC)c(OC)c3)c(=O)c2=O)cc1O`, the IC50 with MCF7 [2] worked out at 6 nM; with SMMC-7721, 1520 nM; in the assay with SW1990, 245 nM; in the assay on HepG2, 14 nM; with CCRF-CEM it was 1.7 nM; in the assay on Bel-7402 [1], 309 nM. Moreover, the IC50 in the assay with HCT-116 worked out at 5 nM. Further, the result in the assay with MCF7 [3] was Active. The “Ratio IC50” value with Bel-7402 [4] and in the assay with MCF7 [5] was 5 throughout.
For `COc1ccc(-c2c(-c3cc(OC)c(OC)c(OC)c3)c(=O)c2=O)cc1Cl`, the 50% inhibitory concentration (IC50) in the assay with CCRF-CEM is 136 nM.
For the molecule `COc1ccc(-c2c(-c3ccc(OC)cc3OC)c(=O)c2=O)cc1`, the half-inhibitory concentration (IC50) with CCRF-CEM is 1510 nM.
Consider `COc1cc(-c2c(-c3ccc4[nH]ccc4c3)c(=O)c2=O)cc(OC)c1OC`, for which the IC50 in the assay on SMMC-7721 was determined as 646 nM; in the assay on HepG2, 6 nM; with CCRF-CEM it was 15.4 nM; in the assay on Bel-7402 [1] it was 1500 nM.
As for `COc1ccc(-c2c(-c3cc(OC)c(OC)c(OC)c3)c(=O)c2=O)cc1OC(C)=O`, the IC50 with CCRF-CEM was determined as 1.8 nM.
Same read-out and setting: under `COc1cc(-c2c(-c3ccccc3)c(=O)c2=O)cc(OC)c1OC` stands 16100 nM.
On to `COc1ccc(-c2c(-c3cc(OC)c(OC)c(OC)c3)c(=O)c2=O)cc1F`, for which the concentration for half-maximal inhibition (IC50) in the assay with MCF7 [2] amounted to 5 nM; with SMMC-7721, 176 nM; in the assay with SW1990 it was 27 nM; with HepG2, 105 nM; in the assay on CCRF-CEM it was 11.5 nM; with Bel-7402 [1], 13 nM. In addition, the half-maximal inhibitory concentration (IC50) in the assay with HCT-116 amounted to 81 nM.
As to `COc1ccc(-c2c(-c3cc(OC)c(OC)c(OC)c3)c(=O)c2=O)c(OC)c1`, the IC50 in the assay on CCRF-CEM turned out to be 1770 nM.
As for `COc1ccc(/C=C\c2cc(OC)c(OC)c(OC)c2)cc1O` [COMBRETASTATIN A4], the half-maximal inhibitory concentration (IC50) with MCF7 [2] was determined as 29 nM; in the assay with CCRF-CEM, 1.6 nM.
`COc1ccc(-c2c(-c3ccc(OC)c(OC)c3OC)c(=O)c2=O)cc1`: the IC50 with CCRF-CEM stood at 2480 nM.
As for `COc1cc(-c2c(-c3cc(OC)c(OC)c(OC)c3)c(=O)c2=O)cc(OC)c1OC`, the IC50 in the assay on CCRF-CEM was greater than 20000 nM.
With `COc1ccc(-c2c(-c3cc(OC)c(OC)c(OC)c3)c(=O)c2=O)cc1`, the IC50 in the assay with CCRF-CEM worked out at 16 nM.
Same read-out and setting: under `COc1ccc(-c2c(-c3ccc(OC)cc3)c(=O)c2=O)cc1` stands greater than 20000 nM.
Regarding `COc1ccc(-c2c(-c3ccc(OC)c(OC)c3)c(=O)c2=O)cc1`, in the assay on CCRF-CEM, the half-inhibitory concentration (IC50) came to 12700 nM.
The same measure, in the same setting: as for `COc1ccc(-c2c(-c3cc(OC)c(OC)c(OC)c3)c(=O)c2=O)cc1[N+](=O)[O-]`, the figure is 12200 nM.
In the case of `COc1ccc(-c2c(-c3cc(OC)c(OC)c(OC)c3)c(=O)c2=O)cc1N`, the IC50 came to 164 nM with MCF7 [2]; 190 nM in the assay with SMMC-7721; 1770 nM in the assay with SW1990; 5 nM in the assay on HepG2; 1.4 nM in the assay with CCRF-CEM; 14 nM in the assay on Bel-7402 [1]. Moreover, in the assay on HCT-116, the IC50 was found to be 5 nM. Further, the “Ratio IC50” value in the assay with Bel-7402 [4] is on record as 122. The outcome with MCF7 [6] was Active.
With `COc1ccc(-c2c(-c3c(OC)cc(OC)cc3OC)c(=O)c2=O)cc1`, the IC50 in the assay with CCRF-CEM amounted to 850 nM.

The values above are taken from ChEMBL document CHEMBL2401623, “Synthesis and antitumor activity of novel 3,4-diaryl squaric acid analogs” (Eur J Med Chem, 2013).
